Source: patent publication US11072632B2, “Inhibitors of 17β-HSD1, 17β-HSD3 and 17β-HSD10” (UNIVERSITÉ LAVAL, priority 2011, dated 2021)
“Also recorded” adds a separate entry of the source.

Tests used:
human ERα = biological target: T1, human ERα (Homo sapiens, UniProt P03372); assay: ERα competitive binding assay (recombinant human ERα); conditions: FIG. 5B
T1 construct: purified full-length recombinant human ERα (Life Technologies, Grand Island, N.Y.); purchased Life Technologies
T1 sequence (P03372 1-595): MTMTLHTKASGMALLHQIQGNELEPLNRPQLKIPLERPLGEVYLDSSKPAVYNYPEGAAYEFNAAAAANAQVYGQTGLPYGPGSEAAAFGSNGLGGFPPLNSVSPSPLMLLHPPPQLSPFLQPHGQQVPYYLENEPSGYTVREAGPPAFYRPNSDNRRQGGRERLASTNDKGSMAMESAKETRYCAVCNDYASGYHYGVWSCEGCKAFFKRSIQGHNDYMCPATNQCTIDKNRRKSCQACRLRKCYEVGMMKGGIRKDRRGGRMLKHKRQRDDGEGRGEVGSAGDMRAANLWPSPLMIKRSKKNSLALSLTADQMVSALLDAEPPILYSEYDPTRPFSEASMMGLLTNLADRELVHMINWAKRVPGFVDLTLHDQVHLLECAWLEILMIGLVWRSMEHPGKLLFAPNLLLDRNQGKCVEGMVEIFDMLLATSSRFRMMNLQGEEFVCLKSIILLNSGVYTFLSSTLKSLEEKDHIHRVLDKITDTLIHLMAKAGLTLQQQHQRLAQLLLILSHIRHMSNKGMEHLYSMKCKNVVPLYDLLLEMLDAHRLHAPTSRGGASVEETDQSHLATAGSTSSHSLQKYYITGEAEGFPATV
Protocol: (§1) Non-specific binding was determined by incubation with an excess of cold estradiol (1 μM). After an overnight incubation at 4° C., 100 μl of cold 50% hydroxyapatite slurry was added to bind the receptor/ligand complex. After 15 minutes, 1 mL of wash buffer (40 mM Tris, 1 mM EDTA, 1 mM EGTA, 100 mM KCl, pH 7.4) was added and the tubes were centrifuged at 4500 rpm for 5 minutes at 4° C. The washing step was repeated twice. The radioactivity of the pellet was extracted by incubation with 1 mL of ethanol for 1 h at room temperature.
as §1, with “A competitive binding assay using a purified full-length recombinant human ERα (Life Technologies, Grand Island, N.Y.). […] Non-specific” for “Non-specific”, “E2” for “cold estradiol”, “μL” for “μl”

T-47D cells [1] = assay: Estrogenic (proliferative) activity on T-47D (ER+) cell line; type: cell-based, human; conditions: 0.5, 1, 2.5 and 5 μM, 7 days
Protocol: (§2) Quantification of cell growth was determined by using CellTiter 96®Aqueous Solution Cell Proliferation Assay (Promega, Nepean, ON, Canada) following the manufacturer's instructions. T-47D cells were resuspended with the medium supplemented with insulin (50 ng/mL) and 5% dextran-coated charcoal treated FBS rather than 10% FBS to remove remaining hormones. Aliquots (100 μL) of the cell suspension were seeded in 96-well plates (3000 cells/well). After 48 h, the medium was changed with a new one containing an appropriate concentration of products to be tested and was replaced every 2 days. Cells have grown either in absence or presence of the compounds for 7 days. To determine the proliferative (estrogenic) activity, the estrogen-sensitive T-47D cells were grown in absence (basal cell proliferation was fixed as 100%) or presence of compounds to be tested at 0.5 to 10 μM. The potent estrogen E2 was used as a reference control. […] The cell proliferation without E1±inhibitor (control) was fixed as 100%. To determine the potential antiestrogenic activity of inhibitor Compound V, the T-47D (ER^+) cells were grown in the presence of estrogen E2 (0.1 nM) and pure antiestrogen EM-139 (0.5 μM) or inhibitor Compound V (0.5 μM). The cell proliferation without E2 and tested compounds (control) were fixed as 100%.

17β-HSD2 = biological target: T2, 17β-HSD2 (Homo sapiens, UniProt P37059); type: cell-based; conditions: 5 nM to 20 μM
T2 construct: expressed in transfected cells
T2 sequence (P37059 1-387): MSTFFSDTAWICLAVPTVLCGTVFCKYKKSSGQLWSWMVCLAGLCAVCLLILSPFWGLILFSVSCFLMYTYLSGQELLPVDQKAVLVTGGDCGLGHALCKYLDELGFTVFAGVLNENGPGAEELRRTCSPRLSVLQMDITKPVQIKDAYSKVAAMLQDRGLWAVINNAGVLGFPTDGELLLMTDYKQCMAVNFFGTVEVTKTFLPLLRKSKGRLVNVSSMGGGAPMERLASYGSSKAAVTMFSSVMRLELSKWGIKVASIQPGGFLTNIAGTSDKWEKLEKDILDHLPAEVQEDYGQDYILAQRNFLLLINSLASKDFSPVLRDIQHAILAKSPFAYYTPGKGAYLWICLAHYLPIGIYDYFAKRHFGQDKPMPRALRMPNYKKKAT
Protocol: Inhibition assays were performed using stable 17β-HSD2 HEK-293 transfected intact cells with 5000 cells per well using 24 well plates (Poirier et al. Mol. Cell. Endocrinol., 2001, 171, 119-128). The cells were incubated for 1 h at 37° C. in 1 mL of MEM medium steroid free with 60 nM C^14 estradiol.

T-47D cells [2] = assay: Inhibition of E1-stimulated T-47D cell proliferation; type: cell-based, human; conditions: control 100%
Protocol: as §2

T-47D cells [3] = assay: Antiestrogenic activity, E2-induced T-47D proliferation; type: cell-based, human; conditions: E2 0.1 nM, compound 0.5 μM
Protocol: as §2

[4] = tested on: ovariectomized (OVX) BALB/c mice; assay: In vivo estrogenicity assay in OVX mice (uterus, vagina weight); design: species or system mouse; conditions: 7 days; for weight of the uterus: OVX mice, s.c.
Protocol: Female ovariectomized (OVX) BALB/c mice weighing approximately 20 g were obtained from Charles-River, Inc. (St-Constant, Qc., Canada). The animals were housed 5 per cage. Groups of 5 mice were treated with E1 (0.02 μg in 8% EtOH/92% PG) or 17β-HSD1 inhibitor at 10, 50 and 250 μg (0.1 mL s.c.) daily for 7 days. Animals were killed 24 h after administration of the last dose of compound and uteri and vagina were removed, excised of fat and weighed. Total body weights of mice were also recorded.

SMILES	relative binding affinity (RBA) (human ERα) [%]	estrogenic (proliferative) activity on T-47D cells (T-47D cells [1])	inhibition of 17β-HSD2 (conversion of E2 to E1) (17β-HSD2)	cell growth, E1-induced (T-47D cells [2]; E1 0.1 nM + inhibitor 2.5 μM) [%]	cell growth, E1-induced (T-47D cells [2]; E1 0.1 nM + inhibitor 5 μM) [%]	antiestrogenic activity (reversal of E2-induced proliferation) (T-47D cells [3])	estrogenicity in vivo ([4]; 10, 50 and 250 μg/mouse/day)	weight of the uterus ([4]; 10 μg/mouse/day) [mg]	weight of the uterus ([4]; 50 μg/mouse/day) [mg]	weight of the uterus ([4]; 250 μg/mouse/day) [mg]
C[C@]12CC[C@@H]3c4ccc(O)cc4CC[C@H]3[C@@H]1C[C@H](Cc1cccc(C(N)=O)c1)[C@@H]2O [Compound I, 16β-(m-carbamoylbenzyl)estradiol, reference compound]	1.5									
C[C@]12CC[C@@H]3c4ccc(CCBr)cc4CC[C@H]3[C@@H]1C[C@H](Cc1cccc(C(N)=O)c1)[C@@H]2O [Compound V, 3-{[(16β,17β)-3-(2-bromoethyl)-17-hydroxyestra-1(10),2,4-trien-16-yl]methyl}benzamide]		not estrogenic at any concentration tested	no inhibition; also recorded: did not show any inhibition	156	125	does not reverse the proliferative effect	non-estrogenic in vivo	25	24	23
